Test results reported in US12281122B1, “PI3K inhibitors” (Cogent Biosciences, Inc., priority 2023, dated 2025).

Legend:
[1] = tested on: SKBR3 (PI3Kα-Wild Type) cell line; assay: HTRF phospho-AKT(S473) cell assay in SKBR3 cells; type: cell-based, human; conditions: Homo sapiens, SK-BR-3; SKBR3 (PI3Kα-Wild Type) cells, HTRF phospho-AKT(S473), 2 hours compound incubation, PDGF-BB stimulated
Summary of the method: (§1)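 T47D: RPMI + 10% FBS + 0.2 units/mL insulin, top 5 μM. SKBR3: McCoy's 5A + 10% FBS, top 10 μM, 70 ng/ml PDGF-BB last 15 min. Both: 12-pt 1:3, 2 h, 37° C, max 0.5% DMSO; HTRF pAKT(S473); IC50.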

[2] = biological target: PI3Kα (Homo sapiens, UniProt P42336); assay: PI3Kα enzyme assay (Transcreener ADP2 TR-FRET Red Assay); type: biochemical; conditions: purified recombinant full-length protein; 2 hours pre-incubation with compound; read-out: PI3Kα WT IC50
Sequence of PI3Kα (P42336 whole entry): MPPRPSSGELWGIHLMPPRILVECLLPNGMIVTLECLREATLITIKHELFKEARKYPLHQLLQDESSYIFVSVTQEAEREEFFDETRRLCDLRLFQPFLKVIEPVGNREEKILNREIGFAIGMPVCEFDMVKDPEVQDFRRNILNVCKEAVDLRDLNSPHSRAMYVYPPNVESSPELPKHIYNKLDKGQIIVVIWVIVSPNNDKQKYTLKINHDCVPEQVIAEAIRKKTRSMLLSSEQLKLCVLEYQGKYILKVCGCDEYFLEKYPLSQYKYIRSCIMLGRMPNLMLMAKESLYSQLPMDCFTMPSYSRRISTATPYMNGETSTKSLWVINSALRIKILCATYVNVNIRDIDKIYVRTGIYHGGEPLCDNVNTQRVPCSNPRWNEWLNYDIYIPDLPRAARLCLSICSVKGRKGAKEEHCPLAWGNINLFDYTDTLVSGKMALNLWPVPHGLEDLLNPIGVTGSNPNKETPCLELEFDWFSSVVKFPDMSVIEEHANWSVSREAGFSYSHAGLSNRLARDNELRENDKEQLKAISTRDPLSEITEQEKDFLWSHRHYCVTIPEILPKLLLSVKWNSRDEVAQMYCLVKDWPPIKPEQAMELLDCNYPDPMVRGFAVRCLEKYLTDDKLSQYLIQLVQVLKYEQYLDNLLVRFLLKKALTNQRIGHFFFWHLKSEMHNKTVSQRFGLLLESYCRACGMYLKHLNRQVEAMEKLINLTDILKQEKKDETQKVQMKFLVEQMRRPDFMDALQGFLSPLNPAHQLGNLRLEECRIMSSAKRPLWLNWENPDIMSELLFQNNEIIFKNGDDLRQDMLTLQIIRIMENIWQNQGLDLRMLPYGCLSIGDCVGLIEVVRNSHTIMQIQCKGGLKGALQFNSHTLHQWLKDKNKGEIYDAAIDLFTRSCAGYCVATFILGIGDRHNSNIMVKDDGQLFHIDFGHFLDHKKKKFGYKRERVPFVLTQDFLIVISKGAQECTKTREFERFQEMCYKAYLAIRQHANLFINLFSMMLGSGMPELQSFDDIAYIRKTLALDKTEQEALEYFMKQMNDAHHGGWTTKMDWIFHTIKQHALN
Sequence of PI3Kα (P27986 2-724 partner): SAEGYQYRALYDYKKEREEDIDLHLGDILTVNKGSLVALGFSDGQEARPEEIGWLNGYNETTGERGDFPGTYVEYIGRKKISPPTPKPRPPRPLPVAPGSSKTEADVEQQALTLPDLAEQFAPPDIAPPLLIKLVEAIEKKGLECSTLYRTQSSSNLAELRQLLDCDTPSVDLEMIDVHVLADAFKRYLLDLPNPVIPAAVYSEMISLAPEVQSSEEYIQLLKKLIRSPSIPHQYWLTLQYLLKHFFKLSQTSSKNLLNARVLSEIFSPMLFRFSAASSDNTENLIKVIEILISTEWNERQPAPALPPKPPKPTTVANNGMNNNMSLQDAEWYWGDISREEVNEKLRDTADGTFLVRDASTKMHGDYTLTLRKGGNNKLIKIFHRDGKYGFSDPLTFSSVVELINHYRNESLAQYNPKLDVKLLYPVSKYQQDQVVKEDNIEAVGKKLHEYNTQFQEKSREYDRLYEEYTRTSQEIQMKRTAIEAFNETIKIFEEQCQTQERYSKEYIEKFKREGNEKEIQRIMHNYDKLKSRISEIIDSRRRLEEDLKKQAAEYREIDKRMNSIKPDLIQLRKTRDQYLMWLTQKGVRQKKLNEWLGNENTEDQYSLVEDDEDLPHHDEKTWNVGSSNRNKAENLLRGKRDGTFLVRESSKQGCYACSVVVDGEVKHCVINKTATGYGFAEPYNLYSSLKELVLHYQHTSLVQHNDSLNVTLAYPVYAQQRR
Procedure: (§2) Activity against PI3Kα and PI3Kα H1047R enzymes were determined in biochemical assays using purified recombinant full-length proteins with the Transcreener ADP^2 TR-FRET Red Assay from Bellbrook Labs. (Catalogue number 3011-10K). Test compounds were dissolved in DMSO and were tested in 11 point 1:3 serial dilutions, typical final concentration range from 50,000 nM to 0.85 nM. Enzymes were pre-incubated with compounds for 2 hours at room temperature prior to initiating the reactions. Assays were initiated with a 2×ATP/PI(4,5)P2 diC8 substrate mixture. After 60 minutes at room temperature, the reactions were quenched with detection reagent and incubated for an additional 60 minutes at room temperature. The plates were read using a multimode reader and the emission ratio of 665 nm to 615 nm was determined. This ratio was converted to percent of control (POC). [1-(high control-sample signal)/(high control-low control)]*100. Wells without compound were used to determine high control values and wells without enzyme were used to determine low control values. The POC values were fit using a four-parameter logistic model and the value where the fit curve was equal to 50 POC was reported as the IC50 using the Signals VitroVivo software package (PerkinElmer). Final assay conditions were: 40 mM HEPES pH 7.5, 20 mM NaCl, 25 mM MgCl2, 0.01% Triton X-100. The enzyme source, catalogue number, final enzyme concentration, and final ATP and PI(4,5)P2 diC8 concentration can be found in the table E10 below.

[3] = tested on: T47D (PI3Kα-H1047R) cell line; assay: HTRF phospho-AKT(S473) cell assay in T47D cells; type: cell-based, human; conditions: Homo sapiens; T47D (PI3Kα-H1047R) cells, HTRF phospho-AKT(S473), 2 hours compound incubation
Summary of the method: as §1

[4] = biological target: PI3Kα H1047R (Homo sapiens, UniProt P42336, H1047R); assay: PI3Kα H1047R enzyme assay (Transcreener ADP2 TR-FRET Red Assay); type: biochemical; conditions: purified recombinant full-length protein; 2 hours pre-incubation with compound
Sequence of PI3Kα H1047R (P42336 whole entry H1047R): as the sequence (P42336 whole entry) above, with H1047R counted along it
Sequence of PI3Kα H1047R (P27986 2-724 partner): as the sequence (P27986 2-724 partner) above
Procedure: as §2

Compound | IC50 [1] | IC50 [2] | IC50 [3] | IC50 [4]
Cc1cc([C@@H](C)Nc2ccc(Cl)nc2C(=O)NS(C)(=O)=O)c2nc(NC(C)(C)C)n(C)c(=O)c2c1 [Compound 7, (R)-3-((1-(2-(tert-butylamino)-3,6-dimethyl-4-oxo-3,4-dihydroquinazolin-8-yl)ethyl)amino)-6-chloro-N-(methylsulfonyl) picolinamide] | ≥ 5000 nM | ≥ 1000 nM | 1000 to 5000 nM | ≥ 1000 nM
Cc1ccc(N[C@H](C)c2cccc3c(=O)n(C)c(N4Cc5ccc(F)cc5C4)nc23)c(C(=O)NS(C)(=O)=O)n1 [Compound 2, (R)-3-((1-(2-(5-fluoroisoindolin-2-yl)-3-methyl-4-oxo-3,4-dihydroquinazolin-8-yl)ethyl)amino)-6-methyl-N-(methylsulfonyl) picolinamide] | ≥ 5000 nM | ≥ 1000 nM | 1000 to 5000 nM | ≥ 1000 nM
C[C@@H](Nc1ccc(Cl)[nH]c1=O)c1cc(F)cc2c(=O)n(C)c(N3Cc4ccc(F)cc4C3)nc12 [Compound 99, (R)-8-(1-((6-chloro-2-oxo-1,2-dihydropyridin-3-yl)amino)ethyl)-6-fluoro-2-(5-fluoroisoindolin-2-yl)-3-methylquinazolin-4(3H)-one] | ≥ 5000 nM | ≥ 1000 nM | 500 to 1000 nM | 100 to 250 nM
C[C@@H](Nc1ccc(Cl)[nH]c1=O)c1cc(F)cc2c(=O)n(C)c(N3CCOCC3)nc12 [Compound 101, (R)-8-(1-((6-chloro-2-oxo-1,2-dihydropyridin-3-yl)amino)ethyl)-6-fluoro-3-methyl-2-morpholinoquinazolin-4(3H)-one] | ≥ 5000 nM | ≥ 1000 nM | 1000 to 5000 nM | 100 to 250 nM
Cc1cc([C@@H](C)Nc2ccc(Cl)nc2C(=O)NS(C)(=O)=O)c2nc(NC34CC(C3)C4)n(C)c(=O)c2c1 [Compound 6, (R)-3-((1-(2-(bicyclo[1.1.1]pentan-1-ylamino)-3,6-dimethyl-4-oxo-3,4-dihydroquinazolin-8-yl)ethyl)amino)-6-chloro-N-(methylsulfonyl) picolinamide] | ≥ 5000 nM | ≥ 1000 nM | 1000 to 5000 nM | ≥ 1000 nM
Cc1cc([C@@H](C)Nc2ccc(Cl)nc2C(=O)NS(C)(=O)=O)c2nc(NCCC3CC3)n(C)c(=O)c2c1 [Compound 18, (R)-6-chloro-3-((1-(2-((2-cyclopropylethyl)amino)-3,6-dimethyl-4-oxo-3,4-dihydroquinazolin-8-yl)ethyl)amino)-N-(methylsulfonyl) picolinamide] | ≥ 5000 nM | ≥ 1000 nM | 1000 to 5000 nM | ≥ 1000 nM
Cc1cc([C@@H](C)Nc2ccc(Cl)nc2C(=O)NS(C)(=O)=O)c2nc(NC3CCC3)n(C)c(=O)c2c1 [Compound 10, (R)-6-chloro-3-((1-(2-(cyclobutylamino)-3,6-dimethyl-4-oxo-3,4-dihydroquinazolin-8-yl)ethyl)amino)-N-(methylsulfonyl) picolinamide] | ≥ 5000 nM | ≥ 1000 nM | 1000 to 5000 nM | 250 to 500 nM
Cc1cc([C@@H](C)Nc2ccc(Cl)nc2C(=O)NS(C)(=O)=O)c2nc(N3Cc4cnn(CC(F)(F)F)c4C3)n(C)c(=O)c2c1 [Compound 53, (R)-6-chloro-3-((1-(3,6-dimethyl-4-oxo-2-(1-(2,2,2-trifluoroethyl)-4,6-dihydropyrrolo[3,4-c]pyrazol-5(1H)-yl)-3,4-dihydroquinazolin-8-yl)ethyl)amino)-N-(methylsulfonyl) picolinamide] | 1000 to 5000 nM | ≥ 1000 nM | < 250 nM | 100 to 250 nM
C[C@@H](Nc1ccc(Cl)nc1C(=O)NS(C)(=O)=O)c1cccc2c(=O)n(C)c(N3Cc4cnn(C)c4C3)nc12 [Compound 38, (R)-6-chloro-3-((1-(3-methyl-2-(1-methyl-4,6-dihydropyrrolo[3,4-c]pyrazol-5(1H)-yl)-4-oxo-3,4-dihydroquinazolin-8-yl)ethyl)amino)-N-(methylsulfonyl) picolinamide] | 1000 to 5000 nM | ≥ 1000 nM | 250 to 500 nM | 500 to 1000 nM
Cc1cc([C@@H](C)Nc2ccc(Cl)nc2C(=O)NS(C)(=O)=O)c2nc(NCc3ccc(F)cc3C)n(C)c(=O)c2c1 [Compound 17, (R)-6-chloro-3-((1-(2-((4-fluoro-2-methylbenzyl)amino)-3,6-dimethyl-4-oxo-3,4-dihydroquinazolin-8-yl)ethyl)amino)-N-(methylsulfonyl) picolinamide] | ≥ 5000 nM | ≥ 1000 nM | 1000 to 5000 nM | ≥ 1000 nM
C[C@@H](Nc1ccc(Cl)nc1C(=O)NS(C)(=O)=O)c1cc(F)cc2c(=O)n(C)c(N3CCc4c(cnn4C)C3)nc12 [Compound 30, (R)-6-chloro-3-((1-(6-fluoro-3-methyl-2-(1-methyl-1,4,6,7-tetrahydro-5H-pyrazolo[4,3-c]pyridin-5-yl)-4-oxo-3,4-dihydroquinazolin-8-yl)ethyl)amino)-N-(methylsulfonyl) picolinamide] | 1000 to 5000 nM | ≥ 1000 nM | < 250 nM | 100 to 250 nM

Results, then the compound that gave them:

IC50 [1] | IC50 [2] | IC50 [3] | IC50 [4] | Compound
1000 to 5000 nM | ≥ 1000 nM | < 250 nM | 250 to 500 nM | Cc1cc([C@@H](C)Nc2ccc(Cl)nc2C(=O)NS(C)(=O)=O)c2nc(N3Cc4cnn(C)c4C3)n(C)c(=O)c2c1 [Compound 4, (R)-6-chloro-3-((1-(3,6-dimethyl-2-(1-methyl-4,6-dihydropyrrolo[3,4-c]pyrazol-5(1H)-yl)-4-oxo-3,4-dihydroquinazolin-8-yl)ethyl)amino)-N-(methylsulfonyl) picolinamide]
1000 to 5000 nM | ≥ 1000 nM | 250 to 500 nM | 500 to 1000 nM | Cc1cc([C@@H](C)Nc2ccc(Cl)nc2C(=O)NS(C)(=O)=O)c2nc(N(C)C34CC(C3)C4)n(C)c(=O)c2c1 [Compound 13, (R)-3-((1-(2-(bicyclo[1.1.1]pentan-1-yl(methyl)amino)-3,6-dimethyl-4-oxo-3,4-dihydroquinazolin-8-yl)ethyl)amino)-6-chloro-N-(methylsulfonyl) picolinamide]
1000 to 5000 nM | ≥ 1000 nM | 250 to 500 nM | 250 to 500 nM | Cc1cc([C@@H](C)Nc2ccc(Cl)nc2C(=O)NS(C)(=O)=O)c2nc(NCC3(C(F)(F)F)CC3)n(C)c(=O)c2c1 [Compound 24, (R)-6-chloro-3-((1-(3,6-dimethyl-4-oxo-2-(((1-(trifluoromethyl)cyclopropyl)methyl)amino)-3,4-dihydroquinazolin-8-yl)ethyl)amino)-N-(methylsulfonyl) picolinamide]
1000 to 5000 nM | ≥ 1000 nM | < 250 nM | 250 to 500 nM | C[C@@H](Nc1ccc(Cl)nc1C(=O)NS(C)(=O)=O)c1cc(F)cc2c(=O)n(C)c(N3CCC(F)(F)CC3)nc12 [Compound 3, (R)-6-chloro-3-((1-(2-(4,4-difluoropiperidin-1-yl)-6-fluoro-3-methyl-4-oxo-3,4-dihydroquinazolin-8-yl)ethyl)amino)-N-(methylsulfonyl) picolinamide]
1000 to 5000 nM | 500 to 1000 nM | < 250 nM | 100 to 250 nM | CCn1ncc2c1CN(c1nc3c([C@@H](C)Nc4ccc(Cl)nc4C(=O)NS(C)(=O)=O)cc(C)cc3c(=O)n1C)C2 [Compound 45, (R)-6-chloro-3-((1-(2-(1-ethyl-4,6-dihydropyrrolo[3,4-c]pyrazol-5(1H)-yl)-3,6-dimethyl-4-oxo-3,4-dihydroquinazolin-8-yl)ethyl)amino)-N-(methylsulfonyl) picolinamide]
1000 to 5000 nM | ≥ 1000 nM | < 250 nM | 250 to 500 nM | CNS(=O)(=O)NC(=O)c1nc(Cl)ccc1N[C@H](C)c1cc(C)cc2c(=O)n(C)c(N3Cc4ccc(F)cc4C3)nc12 [Compound 73, (R)-6-chloro-3-((1-(2-(5-fluoroisoindolin-2-yl)-3,6-dimethyl-4-oxo-3,4-dihydroquinazolin-8-yl)ethyl)amino)-N-(N-methyl-sulfamoyl)picolinamide]
1000 to 5000 nM | ≥ 1000 nM | 250 to 500 nM | ≥ 1000 nM | Cc1cc([C@@H](C)Nc2ccc(Cl)nc2C(=O)NS(C)(=O)=O)c2nc(-c3ccc(C)nc3)n(C)c(=O)c2c1 [Compound 84, (R)-6-chloro-3-((1-(3,6-dimethyl-2-(6-methylpyridin-3-yl)-4-oxo-3,4-dihydroquinazolin-8-yl)ethyl)amino)-N-(methylsulfonyl) picolinamide]
